Data as given in publication PMC9211397, “High-Throughput Screening Platform To Identify Inhibitors of Protein Synthesis with Potential for the Treatment of Malaria” (Antimicrobial Agents and Chemotherapy, 2022).
Where two headings read alike, the source gives them in different places.

Key:
[1] = biological target: P. falciparum translation (P. falciparum lysate); assay: P. falciparum in vitro translation (PfIVT) assay, lysate-based, luciferase reporter; assay type: biochemical, Plasmodium falciparum; settings: for IC50: 8-point, weighted mean ± SD of two technical replicates, read-out: IC50 value (μM) PfIVT; for PfIVT inhibition at 30 μM (%): single-point screen
Source text: (§1) Our P. falciparum in vitro translation (PfIVT) assay is built upon previously established assays ([14], [17]) and is summarized in Fig. 1A. In this assay, successful reconstitution of Plasmodium protein translation is reported via synthesis of a luciferase reporter. For PfIVT, two independent untranslated regions (UTRs), previously shown to promote strong levels of translation ([17]), were introduced upstream and downstream of the luciferase. The 5′ UTR from P. falciparum histidine-rich protein 3 (PfHrp3) ([18]) was introduced upstream of the reporter gene, and the 3′ UTR from P. falciparum histidine-rich protein 2 (PfHrp2) gene ([19]) was introduced downstream. For the reporter construct to support our complementary human IVT assay (HsIVT), the 5′ UTR was replaced with an internal ribosome entry site (IRES) from encephalomyocarditis virus (EMCV) ([20]) and the 3′ UTR was replaced with a poly(A) tail ([21]). […] Finally, a 30-bp poly(A) tail, present within the vector and downstream of the luciferase gene, was inserted to enhance mRNA stability ([21]).
(§2) Translationally active P. falciparum or human embryonic kidney (HEK) 293F lysates were supplemented with accessory, helper, amino acid, and energy regeneration solutions (see Materials and Methods for details). In vitro translation reactions were initiated by the addition of purified mRNA to each reaction well. Using this basic assay format, a number of parameters were assessed and optimized, namely, assay temperature, time, mRNA concentration, and reaction volume (summarized in Fig. S2 in the supplemental material). In addition, we compared the luminescence signal of the CBG firefly luciferase with CBG99, derived from the click beetle […] ([18]).
3D7 parasites were synchronized following two rounds of treatment with D-sorbitol (5%), as previously described ([40]). The hematocrit was reduced from 5% (for standard culture) to 1.5 to 2% and cultures were transferred into HYPERflasks (Corning). Fresh medium was added once or twice daily. […] Harvested red blood cells (infected) were lysed by incubation in 0.1% (wt/vol) saponin on ice for 10 min with gentle agitation. Free parasites were harvested by centrifugation (2,800 × g, 10 min, 4°C) and washed 3 times in wash buffer (WB; 100 mM potassium acetate, 2.5 mM magnesium acetate, 45 mM HEPES [pH 7.4], 250 mM sucrose, 2 mM dithiothreitol, and 15 μM leupeptin) to remove lysed red blood cell debris. The resulting pellet was resuspended in 1 volume of WB supplemented with cOmplete EDTA-free protease inhibitor cocktail (Roche; 1 tablet/20 mL) and human RNase A inhibitor (Sigma; 5 U/mL). Parasite lysis was achieved by nitrogen cavitation using a prechilled 45-mL Parr cell disruption vessel (1,500 lb/in^2, 60 min, 4°C). To clarify the lysate, it was centrifuged (10,000 × g, 15 min, 4°C), and the supernatant was collected, transferred into fresh tubes, and centrifuged (30,000 × g, 15 min, 4°C). As a quality assurance step for each lysate, the RNA content of the resulting supernatant was determined using a NanoDrop spectrophotometer (Shimadzu). Supernatants with RNA levels of >250 ng/μL were aliquoted (100 μL), flash frozen in liquid nitrogen, and stored at −80°C.

CBG99 luciferase = CBG99 luciferase (Pyrophorus plagiophthalamus, UniProt Q7M4K1); assay: Luciferase counterscreen (false-positive counterscreen); assay type: biochemical, click beetle; settings: weighted mean ± SD of two technical replicates, read-out: IC50 value (μM) Counterscreen
Description: Hits identified in our primary assay screen were assessed for their potential to interfere with the cbg99 luciferase reporter. For this counterscreen, the master mix containing all the components required for translation (as described above) was incubated for 210 min at 32°C, resulting in the in vitro translation of cbg99 luciferase. The produced luciferase was then incubated with test compounds for 5 min prior to the addition of luciferase reaction buffer. […] Hits from the primary screen were assessed as luciferase inhibitors in 8-point dose-dependent assays ranging from 30 μM to 13.7 nM (1:3 dilutions). Levels of luciferase inhibition were determined relative to the positive control.

[2] = biological target: human translation (HEK 293F lysate); assay: Human in vitro translation (HsIVT) assay, HEK 293F lysate, luciferase reporter; assay type: biochemical; settings: weighted mean ± SD of two technical replicates, read-out: IC50 value (μM) HsIVT
Source text: as §1, §2
FreeStyle human embryonic kidney (HEK) 293F cells (Thermo Fisher Scientific) were grown in 500-mL polycarbonate Erlenmeyer vented flasks (Corning) containing FreeStyle 293 expression medium (Life Technologies) upon reaching a density of approximately 2 × 10^6. Cells were then centrifuged at 1,000 × g for 10 min at 4°C, the medium was discarded, and the resulting pellet was washed once in buffer II containing 20 U of human placental RNase inhibitor (Sigma-Aldrich) and cOmplete EDTA-free inhibitor cocktail (Roche) before being centrifuged at 2,800 × g for 10 min. Clarified HEK cell lysate was obtained in the same way as described for P. falciparum lysate.
PfIVT and HsIVT reactions (5 μL final volume) were performed in 384-well plates (Corning) containing 50% lysate from cells (either P. falciparum or HEK 293F), 10% amino acid solution (final concentration of 400 μM for each amino acid in 60 mM KOH; biotechrabbit), 10% energy recovery solution (final assay concentrations of 40 mM HEPES [pH 7.4], 1.5 mM ATP, 0.15 mM GTP, […] creatine phosphate, and 40 U/mL creatine phosphokinase), 10% helper solution (final assay concentrations of 200 μM cystine, 2% polyethylene glycol 3000 [PEG 3000], 1 mM spermidine, 0.5 mM folinic acid, and 15 μM leupeptin), 10% supplemental salt solution (22.5 mM HEPES [pH 7.4], 50 mM potassium acetate, 1 mM magnesium acetate, 1 mM DTT, 1 U/mL human placental RNase inhibitor, 0.1 mM leupeptin), and 10% cbg99 luciferase mRNA (3,000 ng/mL). A master mix solution containing all components was prepared on ice prior to assays, and 5 μL was dispensed into wells using an automated Integra VIAFLO 16-channel 12.5-μL pipette.

Chain of CBG99 luciferase (Q7M4K1 entry or part of it): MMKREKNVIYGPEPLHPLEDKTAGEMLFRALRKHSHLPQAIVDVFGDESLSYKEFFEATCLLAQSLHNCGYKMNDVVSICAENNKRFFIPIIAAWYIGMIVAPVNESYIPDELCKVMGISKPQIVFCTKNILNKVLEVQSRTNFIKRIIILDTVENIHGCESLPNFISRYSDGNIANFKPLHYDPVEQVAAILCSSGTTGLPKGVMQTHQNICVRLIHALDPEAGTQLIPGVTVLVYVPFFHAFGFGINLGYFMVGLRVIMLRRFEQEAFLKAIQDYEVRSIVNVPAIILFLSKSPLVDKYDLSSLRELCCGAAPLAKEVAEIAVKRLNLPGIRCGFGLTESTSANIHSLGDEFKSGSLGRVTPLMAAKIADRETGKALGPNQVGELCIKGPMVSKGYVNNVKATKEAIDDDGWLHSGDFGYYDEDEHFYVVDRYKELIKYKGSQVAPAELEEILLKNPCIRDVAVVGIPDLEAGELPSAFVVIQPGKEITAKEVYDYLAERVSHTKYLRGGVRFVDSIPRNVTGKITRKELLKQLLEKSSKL

Row | SMILES | IC50 ([1]; Pathogen Box hits) | PfIVT inhibition at 30 μM (%) ([1]; Pathogen Box) | IC50 (CBG99 luciferase; Pathogen Box hits) | IC50 ([2]; Pathogen Box hits) | IC50 ([1]; Pandemic Box hits) | PfIVT inhibition at 30 μM (%) ([1]; Pandemic Box) | IC50 (CBG99 luciferase; Pandemic Box hits) | IC50 ([2]; Pandemic Box hits) | activity against PfIVT at 100 μM ([1]; 100 μM)
1 | O=C(Nc1nc(-c2ccccn2)cs1)c1cncn1-c1ccccc1 [MMV676512] | > 30 µM | 54.2% | > 30 µM | 22 ± 0.46 µM | – | – | – | – | –
2 | COc1ccc(C(=N)N)cc1-c1cn(-c2ccc(C(=N)N)cc2)nn1 [MMV675998] | 13 ± 0.9 µM | 68.9% | > 30 µM | 18 ± 0.13 µM | – | – | – | – | –
3 | O=C(O)c1cc(-c2ccc(Br)cc2)nc2ccc(Cl)cc12 [MMV247764] | – | – | – | – | 14 ± 0.7 µM | 63.2% | 3.2 ± 0.06 µM | 23 ± 0.2 µM | –
4 | NC(=O)c1cc(Br)ccc1OCCOc1ccccc1 [MMV687243] | 2.2 ± 0.08 µM | 82.5% | 0.9 ± 0.09 µM | 13 ± 0.2 µM | – | – | – | – | –
5 | O=C(Nc1nnc(-c2ccccc2)o1)c1ccc(F)cc1 [MMV1578578] | – | – | – | – | 3.7 ± 0.07 µM | 74.6% | 1.3 ± 0.08 µM | 10 ± 0.12 µM | –
6 | Cc1c[nH]c(CCNC(=O)c2cc(-c3ccc(Cl)cc3)cs2)n1 [MMV676350] | 16 ± 0.8 µM | 65.1% | > 30 µM | 6.7 ± 0.13 µM | – | – | – | – | –
7 | Cc1oncc1C(=O)Nc1ccc(C(F)(F)F)cc1 [MMV003291] | – | – | – | – | 2 ± 0.07 µM | 52.9% | 0.5 ± 0.08 µM | > 30 µM | –
8 | COc1cc(C2=NCCN2)cc2cc(-c3ccc(C4=NCCN4)cc3)oc12 [MMV688362] | 2.8 ± 0.08 µM | 93.5% | > 30 µM | 5.6 ± 0.04 µM | – | – | – | – | –
9 | Cn1cc(NC(=O)c2cc(NC(=O)c3ccc(/C=C/c4cnc5ccccc5c4)cc3)cn2C)cc1C(=O)NCCN1CCOCC1 [MMV1634391] | – | – | – | – | 17 ± 0.6 µM | 52.4% | > 30 µM | 1.1 ± 0.01 µM | –
10 | C(=C\c1nc2ccccc2[nH]1)/c1ccc2c(c1)OCO2 [MMV1582495] | – | – | – | – | 0.6 ± 0.07 µM | 89.9% | 1.7 ± 0.08 µM | 3.1 ± 0.04 µM | –
11 | C[C@H]1c2cccc(O)c2C(=O)C2=C(O)[C@]3(O)C(=O)C(C(N)=O)=C(O)[C@@H](N(C)C)[C@@H]3[C@@H](O)[C@@H]21 [doxycycline, reference compound] | – | – | – | – | – | – | – | – | not active
12 | COc1ccc(C2=NCCN2)cc1-c1cn(-c2cccc(C3=NCCN3)c2)nn1 [MMV688547] | 1.8 ± 0.07 µM | 96.7% | > 30 µM | 2.7 ± 0.02 µM | – | – | – | – | –
13 | N=C(N)Nc1ccc(-c2ccc(-c3ccc(N=C(N)N)c(Cl)c3)o2)cc1Cl [MMV688271] | 18 ± 0.9 µM | 65.7% | > 30 µM | 13 ± 0.16 µM | – | – | – | – | –
